The record followed here is publication PMC8469962, “Unusual Bicyclo[3.2.1]Octanoid Neolignans from Leaves of Piper crocatum and Their Effect on Pyruvate Dehydrogenase Activity” (Plants, 2021).

The subject of this assay is PDHE1α S300 phosphorylation. Kind of assay: Pyruvate dehydrogenase complex (PDH) cellular activity: immunofluorescence of p-PDH E1α (Ser300) in AD-293 cells. Conditions: for IC50: Homo sapiens, AD293, 24 h incubation, normalized to 5 mM DCA control, read-out: IC50, inhibition of PDHE1α S300 phosphorylation; for inhibition of phosphorylation of E1α S300 in fluorescent images, compared with DCA: compounds at 60 µM, DCA at 5 mM. Type of assay: cell-based, Human. The procedure: Point two percent gelatin was added to a black 96-well plate with a clear bottom and incubated for 1 h. Afterwards, the plate was washed with growth media. Human AD-293 cells, derived from the HEK293 cells, were seeded into black 96-well plates with a clear bottom and grown for 24 h. Compounds were then added and incubated for 24 h. The cells were then fixed with 2% paraformaldehyde, and permeabilized anti-PDHE1 pSer300 (Merk Millipore, Burlington, MA, AP1064) was added and incubated overnight. Next, the cells were washed and Alexa fluor 488, goat anti-rabbit ab (Invitrogen, Waltham, MA, A11008) was added with Hoechst 33,258 (Invitrogen, H3569) and incubated for 2 h. Finally, cells were washed, and the plates were measured in Operetta (PerkinElmer, Waltham, MA). The raw data were normalized for the pharmacological inhibitor control (5 mM dichloroacetate (DCA)) and percentage effect values using the software package Harmony High-Content Imaging and Analysis Software 3.1. Dose response curves were generated by plotting the percentage effect values and IC50 values were calculated via GraphPad Prism 6.

Each structure is given as a SMILES string. “Also recorded” adds a separate entry of the source.

As usually defined, the IC50 is the concentration that inhibits the measured activity by half. `C=CCC1=CC2(OC)C(C)C(c3cc(OC)c(OC4OC(CO)C(O)C(O)C4O)c(OC)c3)C(OC)(C1=O)C2O` [Compound 3, (1′R,2′S,3′R,7S,8R)-∆^5′^8′-2′-hydroxy-3,5,1′,3′-tetramethoxyl-4′-oxo-8.1′7.3′-neolignan-4-O-β-D-glucopyranoside]: the IC50 turned out to be 80.2 µM and the “inhibition of phosphorylation of E1α S300 in fluorescent images, compared with DCA” value is reported as “better effect than that of dichloroacetate (DCA)”.

Turning to `C=CCC12C=C(OC)C(=O)C(OC)(C(c3cc(OC)c(OC4OC(CO)C(O)C(O)C4O)c(OC)c3)C1C)C2O` [Compound 2, (1′R,2′R,3′S,7S,8R)-∆^5′^,8′-2′-hydroxy-3,5,3′,5′-tetramethoxyl-4′-oxo-8.1′7.3′-neolignan-4-O-β-D-glucopyranoside], the IC50 stood at 99.8 µM; the “inhibition of phosphorylation of E1α S300 in fluorescent images, compared with DCA” value is “better effect than that of dichloroacetate (DCA); also recorded: better inhibitory effect of compound 2 than that of compound 3 and DCA”.
